From patent publication US8030499B2, “1,3-dihydro-2H-indole-2-one compound and pyrrolidine-2-one compound fused with aromatic heterocycle” (Taisho Pharmaceutical Co., Ltd., priority 2005, dated 2011)
pIC50: −log10 of the molar value.

Molecular target: T1, human V1b receptor (Homo sapiens, UniProt P47901)
T1 construct: expressed in transfected cells; host or cells: CHO cells
T1 sequence (P47901 1-424): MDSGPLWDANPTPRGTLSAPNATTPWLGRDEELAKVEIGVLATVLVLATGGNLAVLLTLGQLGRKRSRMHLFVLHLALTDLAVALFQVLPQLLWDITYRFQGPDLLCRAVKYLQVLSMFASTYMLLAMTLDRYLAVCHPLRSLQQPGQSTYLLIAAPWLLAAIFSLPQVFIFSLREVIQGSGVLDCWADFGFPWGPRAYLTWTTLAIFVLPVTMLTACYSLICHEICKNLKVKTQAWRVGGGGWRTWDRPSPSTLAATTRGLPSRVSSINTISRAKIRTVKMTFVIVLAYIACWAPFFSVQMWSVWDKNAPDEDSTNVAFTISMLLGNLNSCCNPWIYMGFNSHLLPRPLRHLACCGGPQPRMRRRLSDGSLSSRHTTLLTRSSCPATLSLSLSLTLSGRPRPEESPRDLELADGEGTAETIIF
Assay: V1b receptor binding assay ([3H](Arg8)-vasopressin, crude membranes of CHO cells)
Settings: receptor binding test, human V1b, CHO cell membranes
Method: (§1) A summary of the methods is given below.
(§2) Each obtained homogenate was centrifuged for 20 minutes at 50,000×g and 4° C., the sediment was resuspended in a 50 mmol/L Tris hydrochloric acid buffer solution (pH7.4, containing 10 mmol/L magnesium chloride and 0.1% bovine serum albumin), which served as a crude membrane preparation. This crude membrane preparation was added with [^3H] (Arg^8) vasopressin (final concentration: 0.1 nmol/L to 0.4 nmol/L), and each test drug (final concentration: 0.1 nmol/L to lμmol/L or 0.01 nmol/L to 0.1 μmol/L) to 22° C. for 90 minutes. After the end of the reaction, the reaction solution was filtrated using a GF/C glass fiber filter, which had been presoaked in 0.3% polyethyleneimine for two hours. After the GF/C glass fiber filter was dried sufficiently, scintillator was added, and the radioactivity on the filter was measured using a liquid scintillation counter. Binding of [^3H] (Arg^8)-vasopressin in the presence of (Arg^8)-vasopressin, in the amounts of 0.1 μmol/L in the V1b receptor binding assay and 5 μmol/L in the V1a and V2 receptor binding assay, were taken as non-specific binding, and the value obtained by subtracting non-specific binding from the total binding in the absence (Arg^8)-vasopressin served as specific binding.
In addition, regarding the V1b receptor binding assay, the value obtained by, subtracting the amount of binding in the presence of 0.1 μmol/L test drug from the total amount of binding, divided by the amount of specific binding, served as the rate of inhibition (% of inhibition) of the test drug at the concentration tested.

SMILES | pIC50
COc1ccc(S(=O)(=O)N2C(=O)C(c3cc(-c4ccncc4)ccc3OC)(N3C[C@H](O)C[C@H]3C(=O)N(C)C)c3cc(Cl)ccc32)c(OC(F)(F)F)c1 (single isomer, unassigned) [Example 192] | 8.37
COc1ccc(S(=O)(=O)N2C(=O)C(c3cc(C)ccc3OC)(N3C[C@H](OCC(N)=O)C[C@H]3C(=O)N(C)C)c3cc(Cl)ccc32)c(OC(F)(F)F)c1 (single isomer, unassigned) [Example 147] | 8.92
COc1ccc(S(=O)(=O)N2C(=O)C(c3cc(C)ccc3OC)(N3C[C@H](OCCCN(C)C)C[C@H]3C(=O)N(C)C)c3cc(Cl)ccc32)c(OC(F)(F)F)c1 (single isomer, unassigned) [Example 140] | 8.96
COc1ccc(S(=O)(=O)N2C(=O)C(c3ccccc3OC)(N3CCOC[C@H]3C(=O)N(C)C)c3cc(Cl)ccc32)c(OC(F)(F)F)c1 (single isomer, unassigned) [Example 41] | 8.15
COc1ccc(S(=O)(=O)N2C(=O)C(c3cc(C)ccc3OC)(N3C[C@H](O)C[C@H]3C(=O)N(C)C)c3cc(Cl)ccc32)c(OC(F)(F)F)c1 (single isomer, unassigned) [Example 103] | 8.64
COc1ccc(S(=O)(=O)N2C(=O)C(c3cc(C)ccc3OC)(N3CCCC[C@H]3C(=O)N(C)C)c3cc(Cl)ccc32)c(OC(F)(F)F)c1 (single isomer, unassigned) [Example 116] | 8.54
COc1ccc(S(=O)(=O)N2C(=O)C(N[C@@H](C)C(=O)N(C)C)(c3ccccc3OC)c3cc(Cl)ccc32)c(OC(F)(F)F)c1 (single isomer, unassigned) [Example 61] | 7.82
COc1ccc(S(=O)(=O)N2C(=O)C(c3cc(CCO)ccc3OC)(N3C[C@H](O)C[C@H]3C(=O)N(C)C)c3cc(Cl)ccc32)c(OC(F)(F)F)c1 (single isomer, unassigned) [Example 217] | 9.02
COc1ccc(S(=O)(=O)N2C(=O)C(O[C@@H](C)C(=O)N(C)C)(c3ccccc3OC)c3cc(Cl)ccc32)c(OC(F)(F)F)c1 (single isomer, unassigned) [Example 81] | 7.74
COc1ccc(S(=O)(=O)N2C(=O)C(c3cc(C)ccc3OC)(N3C[C@H](O)C[C@H]3C(=O)N(C)C)c3cc(Br)cnc32)c(OC(F)(F)F)c1 (single isomer, unassigned) [Example 120] | 7.96
COc1ccc(S(=O)(=O)N2C(=O)C(c3cc(CCN4CCCCC4)ccc3OC)(N3C[C@H](O)C[C@H]3C(=O)N(C)C)c3cc(Cl)ccc32)c(OC(F)(F)F)c1 (single isomer, unassigned) [Example 225] | 9.49
COc1ccc(S(=O)(=O)N2C(=O)C(c3ccccc3OC)(N(C)[C@@H](C)C(=O)N(C)C)c3cc(Cl)ccc32)c(OC(F)(F)F)c1 (single isomer, unassigned) [Example 71] | 8.20
COc1ccc(S(=O)(=O)N2C(=O)C(c3ccccc3OC)(N3C[C@H](O)C[C@H]3C(=O)N(C)C)c3cc(Cl)ccc32)c(OC(F)(F)F)c1 (single isomer, unassigned) [Example 2] | 8.59
COc1ccc(S(=O)(=O)N2C(=O)C(c3ccccc3OC)(N3Cc4ccccc4C[C@H]3C(=O)N(C)C)c3cc(Cl)ccc32)c(OC(F)(F)F)c1 (single isomer, unassigned) [Example 38 A] | 7.51
COc1ccc(S(=O)(=O)N2C(=O)C(c3cc(N4CCOCC4)ccc3OC)(N3C[C@H](O)C[C@H]3C(=O)N(C)C)c3cc(Cl)ccc32)c(OC(F)(F)F)c1 (single isomer, unassigned) [Example 191] | 8.74

Molecular target: T2, human V2 receptor (Homo sapiens, UniProt P30518)
T2 construct: expressed in transfected cells; host or cells: 293FT cells
Assay: V2 receptor binding assay ([3H](Arg8)-vasopressin, crude membranes of 293FT cells)
Settings: receptor binding test, human V2, 293FT cell membranes
Method: as §1, §2

T2 sequence (P30518 whole entry): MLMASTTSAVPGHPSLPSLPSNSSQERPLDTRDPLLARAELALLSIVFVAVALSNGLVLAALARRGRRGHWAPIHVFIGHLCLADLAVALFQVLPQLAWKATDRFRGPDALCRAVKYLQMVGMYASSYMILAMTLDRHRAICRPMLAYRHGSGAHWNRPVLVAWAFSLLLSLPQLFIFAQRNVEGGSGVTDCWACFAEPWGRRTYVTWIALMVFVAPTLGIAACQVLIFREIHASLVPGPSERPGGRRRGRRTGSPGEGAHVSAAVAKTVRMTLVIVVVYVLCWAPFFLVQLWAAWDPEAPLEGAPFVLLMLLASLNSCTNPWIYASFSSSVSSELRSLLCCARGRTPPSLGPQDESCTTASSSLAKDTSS

SMILES | pIC50
COc1ccc(S(=O)(=O)N2C(=O)C(c3cc(-c4ccncc4)ccc3OC)(N3C[C@H](O)C[C@H]3C(=O)N(C)C)c3cc(Cl)ccc32)c(OC(F)(F)F)c1 (single isomer, unassigned) [Example 192] | < 5.00
COc1ccc(S(=O)(=O)N2C(=O)C(c3cc(C)ccc3OC)(N3C[C@H](OCC(N)=O)C[C@H]3C(=O)N(C)C)c3cc(Cl)ccc32)c(OC(F)(F)F)c1 (single isomer, unassigned) [Example 147] | 5.25
COc1ccc(S(=O)(=O)N2C(=O)C(c3cc(C)ccc3OC)(N3C[C@H](OCCCN(C)C)C[C@H]3C(=O)N(C)C)c3cc(Cl)ccc32)c(OC(F)(F)F)c1 (single isomer, unassigned) [Example 140] | 5.50
COc1ccc(S(=O)(=O)N2C(=O)C(c3ccccc3OC)(N3CCOC[C@H]3C(=O)N(C)C)c3cc(Cl)ccc32)c(OC(F)(F)F)c1 (single isomer, unassigned) [Example 41] | < 5.00
COc1ccc(S(=O)(=O)N2C(=O)C(c3cc(C)ccc3OC)(N3C[C@H](O)C[C@H]3C(=O)N(C)C)c3cc(Cl)ccc32)c(OC(F)(F)F)c1 (single isomer, unassigned) [Example 103] | 5.47
COc1ccc(S(=O)(=O)N2C(=O)C(c3cc(C)ccc3OC)(N3CCCC[C@H]3C(=O)N(C)C)c3cc(Cl)ccc32)c(OC(F)(F)F)c1 (single isomer, unassigned) [Example 116] | < 5.00
COc1ccc(S(=O)(=O)N2C(=O)C(N[C@@H](C)C(=O)N(C)C)(c3ccccc3OC)c3cc(Cl)ccc32)c(OC(F)(F)F)c1 (single isomer, unassigned) [Example 61] | < 5.00
COc1ccc(S(=O)(=O)N2C(=O)C(c3cc(CCO)ccc3OC)(N3C[C@H](O)C[C@H]3C(=O)N(C)C)c3cc(Cl)ccc32)c(OC(F)(F)F)c1 (single isomer, unassigned) [Example 217] | 5.51
COc1ccc(S(=O)(=O)N2C(=O)C(O[C@@H](C)C(=O)N(C)C)(c3ccccc3OC)c3cc(Cl)ccc32)c(OC(F)(F)F)c1 (single isomer, unassigned) [Example 81] | < 5.00
COc1ccc(S(=O)(=O)N2C(=O)C(c3cc(C)ccc3OC)(N3C[C@H](O)C[C@H]3C(=O)N(C)C)c3cc(Br)cnc32)c(OC(F)(F)F)c1 (single isomer, unassigned) [Example 120] | < 5.00
COc1ccc(S(=O)(=O)N2C(=O)C(c3cc(CCN4CCCCC4)ccc3OC)(N3C[C@H](O)C[C@H]3C(=O)N(C)C)c3cc(Cl)ccc32)c(OC(F)(F)F)c1 (single isomer, unassigned) [Example 225] | 5.30
COc1ccc(S(=O)(=O)N2C(=O)C(c3ccccc3OC)(N(C)[C@@H](C)C(=O)N(C)C)c3cc(Cl)ccc32)c(OC(F)(F)F)c1 (single isomer, unassigned) [Example 71] | < 5.00
COc1ccc(S(=O)(=O)N2C(=O)C(c3ccccc3OC)(N3C[C@H](O)C[C@H]3C(=O)N(C)C)c3cc(Cl)ccc32)c(OC(F)(F)F)c1 (single isomer, unassigned) [Example 2] | 5.40
COc1ccc(S(=O)(=O)N2C(=O)C(c3ccccc3OC)(N3Cc4ccccc4C[C@H]3C(=O)N(C)C)c3cc(Cl)ccc32)c(OC(F)(F)F)c1 (single isomer, unassigned) [Example 38 A] | < 5.00
COc1ccc(S(=O)(=O)N2C(=O)C(c3cc(N4CCOCC4)ccc3OC)(N3C[C@H](O)C[C@H]3C(=O)N(C)C)c3cc(Cl)ccc32)c(OC(F)(F)F)c1 (single isomer, unassigned) [Example 191] | 5.48

Molecular target: T3, human V1a receptor (Homo sapiens, UniProt P37288)
T3 construct: expressed in transfected cells; host or cells: 293FT cells
Assay: V1a receptor binding assay ([3H](Arg8)-vasopressin, crude membranes of 293FT cells)
Settings: receptor binding test, 293FT cell membranes
Method: as §1, §2

T3 sequence (P37288 whole entry): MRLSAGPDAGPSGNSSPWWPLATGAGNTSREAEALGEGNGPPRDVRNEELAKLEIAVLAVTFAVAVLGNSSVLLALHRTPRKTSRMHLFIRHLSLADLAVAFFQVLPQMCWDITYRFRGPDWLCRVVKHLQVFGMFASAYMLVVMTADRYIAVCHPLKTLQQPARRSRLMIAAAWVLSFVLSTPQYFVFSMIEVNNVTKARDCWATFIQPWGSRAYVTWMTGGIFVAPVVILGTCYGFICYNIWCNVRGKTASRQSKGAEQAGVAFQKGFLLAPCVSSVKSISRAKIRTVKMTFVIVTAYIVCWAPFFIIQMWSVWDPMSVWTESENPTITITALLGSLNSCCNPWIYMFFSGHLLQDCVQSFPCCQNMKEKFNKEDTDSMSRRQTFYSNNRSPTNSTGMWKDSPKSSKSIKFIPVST

SMILES | pIC50
COc1ccc(S(=O)(=O)N2C(=O)C(c3cc(-c4ccncc4)ccc3OC)(N3C[C@H](O)C[C@H]3C(=O)N(C)C)c3cc(Cl)ccc32)c(OC(F)(F)F)c1 (single isomer, unassigned) [Example 192] | 6.10
COc1ccc(S(=O)(=O)N2C(=O)C(c3cc(C)ccc3OC)(N3C[C@H](OCC(N)=O)C[C@H]3C(=O)N(C)C)c3cc(Cl)ccc32)c(OC(F)(F)F)c1 (single isomer, unassigned) [Example 147] | 5.95
COc1ccc(S(=O)(=O)N2C(=O)C(c3cc(C)ccc3OC)(N3C[C@H](OCCCN(C)C)C[C@H]3C(=O)N(C)C)c3cc(Cl)ccc32)c(OC(F)(F)F)c1 (single isomer, unassigned) [Example 140] | 6.45
COc1ccc(S(=O)(=O)N2C(=O)C(c3ccccc3OC)(N3CCOC[C@H]3C(=O)N(C)C)c3cc(Cl)ccc32)c(OC(F)(F)F)c1 (single isomer, unassigned) [Example 41] | 5.42
COc1ccc(S(=O)(=O)N2C(=O)C(c3cc(C)ccc3OC)(N3C[C@H](O)C[C@H]3C(=O)N(C)C)c3cc(Cl)ccc32)c(OC(F)(F)F)c1 (single isomer, unassigned) [Example 103] | 6.30
COc1ccc(S(=O)(=O)N2C(=O)C(c3cc(C)ccc3OC)(N3CCCC[C@H]3C(=O)N(C)C)c3cc(Cl)ccc32)c(OC(F)(F)F)c1 (single isomer, unassigned) [Example 116] | 6.19
COc1ccc(S(=O)(=O)N2C(=O)C(N[C@@H](C)C(=O)N(C)C)(c3ccccc3OC)c3cc(Cl)ccc32)c(OC(F)(F)F)c1 (single isomer, unassigned) [Example 61] | 5.83
COc1ccc(S(=O)(=O)N2C(=O)C(c3cc(CCO)ccc3OC)(N3C[C@H](O)C[C@H]3C(=O)N(C)C)c3cc(Cl)ccc32)c(OC(F)(F)F)c1 (single isomer, unassigned) [Example 217] | 6.39
COc1ccc(S(=O)(=O)N2C(=O)C(O[C@@H](C)C(=O)N(C)C)(c3ccccc3OC)c3cc(Cl)ccc32)c(OC(F)(F)F)c1 (single isomer, unassigned) [Example 81] | 6.17
COc1ccc(S(=O)(=O)N2C(=O)C(c3cc(C)ccc3OC)(N3C[C@H](O)C[C@H]3C(=O)N(C)C)c3cc(Br)cnc32)c(OC(F)(F)F)c1 (single isomer, unassigned) [Example 120] | 5.17
COc1ccc(S(=O)(=O)N2C(=O)C(c3cc(CCN4CCCCC4)ccc3OC)(N3C[C@H](O)C[C@H]3C(=O)N(C)C)c3cc(Cl)ccc32)c(OC(F)(F)F)c1 (single isomer, unassigned) [Example 225] | 7.00
COc1ccc(S(=O)(=O)N2C(=O)C(c3ccccc3OC)(N(C)[C@@H](C)C(=O)N(C)C)c3cc(Cl)ccc32)c(OC(F)(F)F)c1 (single isomer, unassigned) [Example 71] | 5.39
COc1ccc(S(=O)(=O)N2C(=O)C(c3ccccc3OC)(N3C[C@H](O)C[C@H]3C(=O)N(C)C)c3cc(Cl)ccc32)c(OC(F)(F)F)c1 (single isomer, unassigned) [Example 2] | 6.13
COc1ccc(S(=O)(=O)N2C(=O)C(c3ccccc3OC)(N3Cc4ccccc4C[C@H]3C(=O)N(C)C)c3cc(Cl)ccc32)c(OC(F)(F)F)c1 (single isomer, unassigned) [Example 38 A] | < 5.00
COc1ccc(S(=O)(=O)N2C(=O)C(c3cc(N4CCOCC4)ccc3OC)(N3C[C@H](O)C[C@H]3C(=O)N(C)C)c3cc(Cl)ccc32)c(OC(F)(F)F)c1 (single isomer, unassigned) [Example 191] | 6.53
